Measurements reported in PMC8389922, “First-in-Class Cyclic Temporin L Analogue: Design, Synthesis, and Antimicrobial Assessment” (Journal of Medicinal Chemistry, 2021).
Bridge positions count the residues as written; N and C are the ends. Square brackets hold non-standard residues; d marks the D form. Peptide text beside a SMILES is read from it.

Tests used:
[1] = test system: preformed biofilm of S. aureus ATCC 25923
Experimental: (§1) Biofilm viability was determined as indicated in the Materials and General Procedures section and expressed as a percentage compared to that of untreated samples (100%). Values are the mean of at least three replicates ± SEM. Data are considered to be statistically significant as follows: *p < 0.05; ***p < 0.001; ****p < 0.0001. Biofilm eradication concentration 90, BEC90, was defined as the concentration able to reduce at least 90% of biofilm cells. TEXT PRINTED IN THE PICTURE: 9: S. aureus ATCC 25923: BEC90 = 25 μM; A. baumannii ATCC 19606: BEC90 > 100 μM | 12: S. aureus ATCC 25923: BEC90 = 12.5 μM; A. baumannii ATCC 19606: BEC90 = 25 μM
(§2) Preformed biofilms of S. aureus ATCC 25923 and A. baumannii ATCC 19606 were obtained as previously reported.[77] Microbial cultures were grown in Luria-Bertani broth (LB) at 37 °C to an optical density (OD) of 0.8 (λ = 590 nm) and then diluted in LB to a cell density of 1 × 10^6 colony-forming units (CFUs)/mL. Aliquots of 100 μL were dispensed into the wells of a 96-well plate, which was incubated for 20 h at 37 °C to allow biofilm formation. The medium containing planktonic cells was then aspirated from the wells and washed twice with 150 μL of phosphate-buffered saline (PBS) to remove any nonadherent cells. […] After treatment, each well was rinsed twice with PBS, as previously described. Then, 150 μL of MTT solution (0.5 mg/mL) were added to each well to evaluate biofilm cell viability. The plates were incubated at 37 °C for 4 h in the dark, and the reaction was stopped by adding sodium dodecyl sulfate (SDS) (at a final concentration of 5% v/v). The absorbance of each well was recorded at 570 nm using a microplate reader (Infinite M200; Tecan, Salzburg, Austria), and the percentage of biofilm cells viability was calculated with respect to the untreated samples (100%).

[2] = test system: preformed biofilm of A. baumannii ATCC 19606; conditions: ATCC 19606, 20 h
Experimental: as §1, §2

in vitro = conditions: male, human, 90% fresh human serum
Experimental: Peptides were incubated with 90% fresh human serum at 37 ± 1 °C within 12 h.[69] The percentage of intact peptide was monitored by calculating the peak area of the chromatogram from RP-HPLC analysis.
The peptide was incubated in a 1.5 mL eppendorf tube with human serum at a final concentration of 0.2 mM, and the mixture was incubated at 37 ± 1 °C for different periods (0.25, 0.75, 1.5, 2, 3, 4, 6, 7, 8, and 12 h). After the incubation period, an aliquot of reaction solution was taken and added MeCN (double volume respect to the aliquot) for the precipitation of serum proteins present in human serum. The produced cloudy solution was cooled (4 °C) for 15 min and then centrifuged at 13 000 rpm for 10 min to remove the serum protein as pellet. Then, the supernatant was analyzed by RP-UHPLC using a linear elution gradient from 10 to 90% MeCN (0.1% TFA) in water (0.1% TFA) over 20 min. A flow rate of 1 mL/min was employed, and the absorbance of the eluting peaks was detected at 220 nm. The proteolytic stability assay was repeated in triplicate.

ANTS/DPX leakage assay = conditions: peptide 5–50 μM, 10 min
Experimental: The destabilization of membrane vesicles by 12 was explored measuring its effect on the release of encapsulated fluorophores in both LUVs mimicking Gram-positive and Gram-negative membranes. ANTS and DPX fluorophores were encapsulated in LUVs, and ANTS release was measured to evaluate the transient pore formation.
The dry lipid films (Cf = 100 μM) were dissolved with a solution of ANTs (12.5 mM) and DPX (45 mM) in water (2 mL) and then lyophilized overnight. The lipid films with encapsulated ANTS and DPX were hydrated with PBS 1× buffer and treated to obtain LUVs using the extrusion method.[81] Then, nonencapsulated ANTs and DPX were separated from liposomes by gel filtration using a Sephadex G-50 column (1.5 cm × 10 cm) at room temperature. Initially, liposomes contain both ANTs and DPX, and DPX efficiently quenches ANT fluorescence by collisional transfer.[82] When LUVs were treated with peptide concentrations of 5, 10, 15, 20, 30, and 50 μM, we measured the leakage of vesicles by measuring the dequenching of ANTS released into the medium. Changes in the fluorescence of 2 mL of ANTS/DPX LUV samples were monitored setting an excitation fluorescence at 385 nm (slit width, 5 nm) and a fluorescence emission at 512 nm (slit width, 5 nm) for 10 min after the addition of the peptide. […]

[3] = Membrane fluidity, Laurdan GP value; conditions: lipid 100 μM, Laurdan 1 μM, PBS pH 7.4, 25 °C, 10 min; for GPlaurdan DOPG/DOPE/CL + cmpd: LUVs alone –0.14; for GPlaurdan DOPG/CL + cmpd: LUVs alone –0.32
Experimental: A membrane fluidity study was performed using Laurdan, a probe with the capacity to insert into membranes and to distribute between liquid phases,[66] changing its emission spectrum.[67] In particular, the maximum emission wavelength of Laurdan is 490 nm when phospholipids are in a disordered phase and it shifts to 440 nm when lipids are in a more packed phase. The generalized polarization (GP) parameter was used to measure quantitatively the emission shift of the Laurdan probe.[68] […] LUVs fluidity was evaluated before and after the addition of 12 and 9 at 25 °C. Before the addition of both peptides, emission of LUVs, mimicking both Gram-positive and Gram-negative membranes, indicated the presence of a disordered phase with a maximum at 490 nm (Table 3). […] In fact, GP parameter indicated the presence of a disordered phase for both Gram-positive and Gram-negative liposomes (Table 3).
Laurdan is extensively used as a fluorescent probe in membrane fluidity study.[79] Laurdan emission spectra encapsulated in large unilamellar vesicles (LUVs) are centered at 490 nm when the lipids are in a disordered phase and the emission shifts to 440 nm when the lipids are in a more packed phase. The preparation of LUVs was performed using the extrusion method.[79] To mimic the lipid composition of Gram-positive and Gram-negative membranes, we used LUVs made of DOPG/CL (58/42 ratio in moles) and DOPG/DOPE/CL (63/23/12 ratio in moles), respectively. First, stock solutions of lipids in chloroform were prepared and the assay was performed using a final lipid concentration of 100 μM. Laurdan (1 μM) was added to chloroform/lipids solution before the evaporation of organic solvent. The mixture of lipids and probe was dried under nitrogen gas stream and freeze-dried overnight. Then, lipid film with Laurdan was hydrated with PBS 1× buffer, pH = 7.4, vortexed for 1 h, and freeze-thawed six times and extruded 10 times through polycarbonate membranes with 0.1 μm diameter pores, obtaining LUVs with encapsulated Laurdan. Stock solutions of 2 mM of linear peptide 9 and lactam-bridged analogue 12 were prepared by dissolving peptides in water. The influence of peptides on membrane fluidity was evaluated at 5 and 30 μM. The peptide was added to LUVs + Laurdan probe, and after 10 min, the fluorescence spectra were recorded using a 1 cm path length quartz cell, thermostated at 25 °C. To measure the Laurdan emission shift and to quantify the variation of membrane fluidity, we calculated the generalized polarization (GP) as GP = (I440 – I490)/(I440 + I490).

## CC[C@H](C)[C@H](NC(=O)[C@H](CCCNC(=N)N)NC(=O)[C@@H]1CCC(=O)NCCCC[C@H](NC(=O)[C@H](Cc2ccccc2)NC(=O)[C@H](Cc2c[nH]c3ccccc23)NC(=O)[C@@H]2CCCN2C(=O)[C@@H](NC(=O)[C@@H](N)Cc2ccccc2)C(C)C)C(=O)N[C@@H](CCCCN)C(=O)N[C@@H](Cc2ccccc2)C(=O)N[C@H](CC(C)C)C(=O)N1)C(=O)N[C@@H](CC(C)C)C(N)=O [compound 12] (H-FVPWFKKF[dL]ERIL-NH2; lactam 6-10)
[1]; 2 h treatment, from 100 to 12.5 μM, with respect to untreated samples
  reduction of viable S. aureus biofilm cells: more than 90%
[1]; preformed 20 h biofilm, 2 h treatment in PBS at 37 °C, MTT, concentration reducing at least 90% of biofilm cells
  Biofilm Eradication Concentration 90 (BEC90) S. aureus ATCC 25923: 12.5 µM
[2]
  Biofilm Eradication Concentration 90 (BEC90) A. baumannii ATCC 19606: 25 µM
In vitro
  half-life at 0.2 mM: ~6 h
  remaining at 1.5 h, 0.2 mM: ~70%
ANTS/DPX leakage assay; LUVs mimicking Gram-negative membranes
  leakage of LUVs (ANTS release): significant leakage ability
ANTS/DPX leakage assay; LUVs mimicking Gram-positive membranes
  leakage of LUVs (ANTS release): low leakage effect
[3]; peptide 5 μM
  GPlaurdan DOPG/DOPE/CL + cmpd: –0.07
  GPlaurdan DOPG/CL + cmpd: –0.23
[3]; peptide 30 μM
  GPlaurdan DOPG/DOPE/CL + cmpd: 0.1
  GPlaurdan DOPG/CL + cmpd: 0.04
